In patent publication US20070258912A1, “Use of Fluorescent Whitening Agents as Antimicrobials” (priority 2004, published 2007):
Where two headings read alike, the source gives them in different places.

How the values were obtained:
Type in all cases: cell-based
[1] = tested on: Corynebacterium minutissimum; assay: MIC in the agar incorporation test; details: read-out: MIC Corynebacterium minutissimum
[2] = tested on: Prevotella nigrescens; assay: MIC against oral microorganisms via broth dilution
Description: (§1) Determination of the Minimum Inhibition Concentration (MIC Value) Against Different Oral Microorganisms Via Broth Dilution
(§2) 1500 ppm stock solutions of the substances are prepared in ethanol and pipetted into the growth medium to yield concentrations between 0.94 and 15 ppm. Bacteria are taken from blood agar plates with cotton swabs and adjusted in the appropriate growth medium to yield an optical density corresponding to McFarland 0.5. This suspension is directly used in the case of F. nucleatum and P. nigrescens. For the other strains, the suspension is diluted 1:20. 0.1 ml of these bacterial suspensions are added to 2 ml of the substance solutions. After the incubation time, the tubes are assessed for growth (turbidity).
(§3) Test Organisms: *Actinobacillus actinomycetemcomitans ATCC 43718 *Stretococcus gordonii ATCC 10558 *Streptococcus mutans ATCC 33402 Actinomyces viscosus ATCC 43146 Fusobacterium nucleatum subsp. polymorphum ATCC 10953 Porphyromonas gingivalis ATCC 33277
(§4) Prevotella nigrescens ATCC 33563

[3] = tested on: Streptococcus mutans; assay: MIC against oral microorganisms via broth dilution
Description: as §1, §2, §3, §4

[4] = tested on: Actinomyces viscosus; assay: MIC against oral microorganisms via broth dilution
Description: as §1, §2, §3, §4

[5] = tested on: Porphyromnas gingivalis; assay: MIC against oral microorganisms via broth dilution; details: read-out: MIC Porphyromnas gingivalis
Description: as §1, §2, §3, §4

[6] = tested on: Fusobacterium nucleatum subsp. polymorphum; assay: MIC against oral microorganisms via broth dilution; details: ATCC10953, broth dilution 0.94-15 ppm, 7-10 days at 37° C. anaerobically, ATCC 10953, read-out: MIC Fusobacterium nucleatum subsp. polymorphum
Description: as §1, §2, §3, §4

[7] = tested on: Streptococcus gordonii; assay: MIC against oral microorganisms via broth dilution
Description: as §1, §2, §3, §4

[8] = tested on: Propionibacterium acnes; assay: MIC in the agar incorporation test; details: Cutibacterium acnes, read-out: MIC Propionibacterium acnes
Description: (§5) Determination of Minimum Inhibitory Concentration (MIC Values) in the Agar Incorporation Test
(§6) 1% stock solutions of the substances are prepared in an appropriate solvent and diluted in serial dilutions 1:2 (to yield end concentrations in the agar of 500-1.9 ppm). 0.3 ml of each dilution step is mixed with 15 ml of nutrient medium while the latter is still liquid. After the nutrient medium has solidified, 10 μl of each test strain in 0.85% NaCl solution are spotted onto the agar medium.
(§7) The plates are incubated at 37° C. for 24 hours and then the highest dilution (lowest concentration) of the test substance at which growth is no longer observable is determined.
(§8) Test Organisms: Staphylococcus aureus ATCC 6583 Staphylococcus epidermidis ATCC 12228 Corynebacterium xerosis ATCC 373 Propionibacterium acnes ATCC Escherichia coli ATCC 10536 Salmonella choleraesuis ATCC Klebsiella pneumoniae ATCC *Candida albicans ATCC 10231
(§9) *Aspergillus niger ATCC 6275

[9] = tested on: Staphylococcus aureus; assay: MIC in the agar incorporation test
Description: as §5, §6, §7, §8, §9

[10] = tested on: Staphylococcus epidermis; assay: MIC in the agar incorporation test
Description: as §5, §6, §7, §8, §9

[11] = tested on: Corynebacterium xerosis; assay: MIC in the agar incorporation test
Description: as §5, §6, §7, §8, §9

[12] = tested on: Salmonella choleraesuis; assay: MIC in the agar incorporation test; details: Salmonella enterica, Mueller Hinton agar, 24 hours at 37° C.
Description: as §5, §6, §7, §8, §9

[13] = tested on: Klebsiella pneumoniae; assay: MIC in the agar incorporation test; details: Mueller Hinton agar, 24 hours at 37° C.
Description: as §5, §6, §7, §8, §9

[14] = tested on: Escherichia coli; assay: MIC in the agar incorporation test
Description: as §5, §6, §7, §8, §9

[15] = tested on: Actinomyces viscosus; assay: Microbicidal activity (suspension test, plate count); details: ATCC 43146
Description: (§10) Determination of Microbicidal Activity
(§11) 1 g stock solution with an appropriate concentration of test products are mixed with 8 g water and then inoculated with 1 ml of the selected test organisms. After a given contact period, aliquots are taken, inactivated and diluted. The number of surviving bacteria per ml incubation assay is determined by plate count. Proper inactivation by the inactivating medium used was checked each time.
(§12) Diluent: tryptone water for microorganisms
(§13) • (0.1% tryptone (Oxoid), 0.85% NaCl, deion. water) • deion. water for test substances • inactivating medium for detection of surviving microorganisms Growth medium: casein soybean peptone agar Inactivating Medium: tryptic soy broth special • (10% w/w Tween 80, 3% w/w Lecithine, 0.1% w/w L-Histidine, • 0.055% w/w Sodium thiosulfate) Test organisms: Staphylococcus aureus ATCC 6538 • Escherichia coli ATCC 10536 • Actinomyces viscosus ATCC 43146 • Corynebacterium xerosis ATCC 373 Test concentration: 120 ppm and 1200 ppm Contact times: 5 and 30 minutes at 22° C.
(§14) Incubation time: 24 h at 37° C.

[16] = tested on: Staphylococcus aureus; assay: as above; details: ATCC 6538
Description: as §10, §11, §12, §13, §14

[17] = tested on: Corynebacterium xerosis; assay: as above; details: ATCC 373
Description: as §10, §11, §12, §13, §14

[18] = tested on: Escherichia coli; assay: as above; details: ATCC 10536
Description: as §10, §11, §12, §13, §14

[19] = agar incorporation, Mueller Hinton agar, 24 hours at 37° C.
[20] = ATCC33563, broth dilution 0.94-15 ppm, Columbia bouillon, 7-10 days at 37° C. anaerobically, ATCC 33563, read-out: MIC Prevotella nigrescens
[21] = ATCC43146, broth dilution 0.94-15 ppm, 7-10 days at 37° C. anaerobically, ATCC 43146, read-out: MIC Actinomyces viscosus
[22] = ATCC6583, agar incorporation, Mueller Hinton agar, 24 hours at 37° C., ATCC 6583, read-out: MIC Staphylococcus aureus
[23] = ATCC12228, agar incorporation, Mueller Hinton agar, 24 hours at 37° C., ATCC 12228, read-out: MIC Staphylococcus epidermis
[24] = ATCC373, agar incorporation, Mueller Hinton agar, 24 hours at 37° C., ATCC 373, read-out: MIC Corynebacterium xerosis
[25] = 120 ppm, 5 min contact at 22° C.
[26] = 120 ppm, 30 min contact at 22° C.
[27] = 1200 ppm, 5 min contact at 22° C.
[28] = 1200 ppm, 30 min contact at 22° C.

COc1cccc(/C=C/c2ccc(/C=C/c3cccc(OC)c3OCCCN(C)C)cc2)c1OCCCN(C)C [formula 27]
MIC [1, 19]: 3.1 µg/mL | MIC [2, 20]: 3.8 µg/mL | MIC ([3]; ATCC33402, broth dilution 0.94-15 ppm, 24 h aerobically with 10% CO2, ATCC 33402, read-out: MIC Streptococcus mutans): 15 µg/mL | MIC [4, 21]: 7.5 µg/mL | MIC ([5]; broth dilution 0.94-15 ppm, Columbia bouillon, 7-10 days at 37° C. anaerobically, ATCC 33277): 7.5 µg/mL | MIC [6]: 7.5 µg/mL | MIC ([7]; ATCC10558, broth dilution 0.94-15 ppm, 24 h aerobically with 10% CO2, ATCC 10558, read-out: MIC Streptococcus gordonii): 15 µg/mL | MIC [8, 19]: 6.3 µg/mL | MIC [9, 22]: 12.5 µg/mL | MIC [10, 23]: 12.5 µg/mL | MIC [11, 24]: 3.1 µg/mL | MIC [12]: 200 µg/mL | MIC [13]: 25 µg/mL

C[n+]1ccc(Oc2ccccc2/C=C/c2ccc(-c3ccc(/C=C/c4ccccc4Oc4cc[n+](C)cc4)cc3)cc2)cc1 [formula 34]
MIC ([1]; 24 h): 3.1 µg/mL | MIC ([2]; ATCC33563, read-out: MIC Prevotella nigrescens): 3.8 µg/mL | MIC ([3]; ATCC33402, 24 h, read-out: MIC Streptococcus mutans): 1.9 µg/mL | MIC ([4]; ATCC43146, read-out: MIC Actinomyces viscosus): 1.9 µg/mL | MIC [5]: 7.5 µg/mL | MIC ([7]; ATCC10558, 24 h, read-out: MIC Streptococcus gordonii): 15 µg/mL | MIC ([8]; 24 h): 1.6 µg/mL | MIC ([9]; ATCC6583, 24 h, read-out: MIC Staphylococcus aureus): 3.1 µg/mL | MIC ([10]; ATCC12228, 24 h, read-out: MIC Staphylococcus epidermis): 3.1 µg/mL | MIC ([11]; ATCC373, 24 h, read-out: MIC Corynebacterium xerosis): 3.1 µg/mL | MIC ([14]; ATCC10536, 24 h, read-out: MIC Escherichia coli): 50 µg/mL

CCN(CC)CCOc1cccc(/C=C/c2ccc(/C=C/c3cccc(OCCN(CC)CC)c3OCCN(CC)CC)cc2)c1OCCN(CC)CC [formula 25]
Microbicidal activity Actinomyces viscosus 120 ppm/5 min [15, 25]: 2.9 log reductions | Microbicidal activity Actinomyces viscosus 120 ppm/30 min [15, 26]: 2.1 log reductions | Microbicidal activity Actinomyces viscosus 1200 ppm/5 min [15, 27]: 4 log reductions | Microbicidal activity Actinomyces viscosus 1200 ppm/30 min [15, 28]: 4 log reductions | Microbicidal activity Staphylococcus aureus 120 ppm/5 min [16, 25]: 1 log reduction | Microbicidal activity Staphylococcus aureus 120 ppm/30 min [16, 26]: 1 log reduction | Microbicidal activity Staphylococcus aureus 1200 ppm/5 min [16, 27]: 2.9 log reduction | Microbicidal activity Staphylococcus aureus 1200 ppm/30 min [16, 28]: 2.8 log reduction | Microbicidal activity Corynebacterium xerosis 120 ppm/5 min [17, 25]: 5 log reductions | Microbicidal activity Corynebacterium xerosis 120 ppm/30 min [17, 26]: 5 log reductions | Microbicidal activity Corynebacterium xerosis 1200 ppm/5 min [17, 27]: 5 log reductions | Microbicidal activity Corynebacterium xerosis 1200 ppm/30 min [17, 28]: 5 log reductions | Microbicidal activity Escherichia coli 120 ppm/5 min [18, 25]: 5 log reduction | Microbicidal activity Escherichia coli 120 ppm/30 min [18, 26]: 5 log reduction | Microbicidal activity Escherichia coli 1200 ppm/5 min [18, 27]: 5 log reduction | Microbicidal activity Escherichia coli 1200 ppm/30 min [18, 28]: 5 log reduction | MIC [1, 19]: 15.6 µg/mL | MIC [2, 20]: 15 µg/mL | MIC [4, 21]: 15 µg/mL | MIC [8, 19]: 62.5 µg/mL | MIC [9, 22]: 62.5 µg/mL | MIC [10, 23]: 62.5 µg/mL | MIC [11, 24]: 15.6 µg/mL | MIC [12]: 125 µg/mL | MIC ([14]; ATCC10536, agar incorporation, Mueller Hinton agar, 24 hours at 37° C., ATCC 10536, read-out: MIC Escherichia coli): 125 µg/mL
